These molecules were tested against h5-HT2A receptor (Homo sapiens, UniProt P28223) (assay: [3H]ketanserin competitive radioligand binding assay). Conditions: h5-HT2A Ki relative to parent compound AMDA (Ki = 20 nM).
Chain of h5-HT2A receptor (P28223 whole entry): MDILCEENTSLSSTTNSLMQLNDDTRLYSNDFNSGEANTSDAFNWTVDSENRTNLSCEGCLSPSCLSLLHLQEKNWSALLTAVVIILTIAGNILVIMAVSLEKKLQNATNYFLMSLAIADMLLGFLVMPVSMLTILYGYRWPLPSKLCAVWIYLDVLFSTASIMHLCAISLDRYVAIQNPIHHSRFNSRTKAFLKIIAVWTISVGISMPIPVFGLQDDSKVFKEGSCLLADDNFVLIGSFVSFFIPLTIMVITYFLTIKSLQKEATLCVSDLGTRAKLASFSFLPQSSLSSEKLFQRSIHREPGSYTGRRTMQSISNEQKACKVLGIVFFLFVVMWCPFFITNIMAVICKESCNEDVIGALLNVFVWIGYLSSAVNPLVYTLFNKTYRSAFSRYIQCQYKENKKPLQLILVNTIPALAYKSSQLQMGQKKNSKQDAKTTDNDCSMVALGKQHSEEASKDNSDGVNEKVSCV
With `COc1cccc2c1C(CN)c1ccccc1C2` (stereo not drawn) [Compound 2, 1-methoxy AMDA] the “fold decrease in affinity compared to AMDA” value (shortened to “fold decrease in affinity”) was > 50 fold.
`COc1ccc2c(c1)C(CN)c1ccccc1C2` (stereo not drawn) [Compound 3, 2-methoxy-9-aminomethyl-9,10-dihydroanthracene] was tested, and the “fold decrease in affinity” value was > 50 fold.
With `COc1cccc2c1Cc1ccccc1C2CN` (stereo not drawn) [Compound 5, 4-methoxy-AMDA] the “fold decrease in affinity” value was 6 fold.

Source: publication PMC3082371 (Bioorganic & medicinal chemistry letters, 2008)
